Results from patent US4621094A, “Anti-histaminic pyridyl compounds” (priority 1984, dated 1986).

Biological target: T1, H1 histamine receptor (Cavia porcellus, UniProt P31389)
T1 construct: The longitudinal muscle was isolated from the intact ileum of guinea pigs; from tissue; host or cells: ileum longitudinal muscle, guinea pig (Hartley, male 250-400 g)
Experiment: Antihistaminic activity: antagonism of histamine concentration-response curves in isolated guinea pig ileum longitudinal muscle (Schild plot)
Format: cell-based, guinea pigs
Details: negative log of molar antagonist concentration shifting the control histamine concentration-response curve 2X to the right; tissue incubated one hour with test compound; organ bath, 300 mg tension; read-out: pA2 (converted)
Procedure: The longitudinal muscle was isolated from the intact ileum of guinea pigs (Hartley, male 250-400 g) and placed in an organ bath under 300 mg tension. After one hour of equilibration, cumulative concentration-response curves (Van Rossum, J. M., Arch. Int. Pharmacodyn. Ther. 143, 299-330, 1963) to histamine were obtained. Following washing, the tissues were incubated for one hour with the test compound and then a second histamine concentration-response curve was run. Shifts to the right of the agonist concentration-response curve produced by the antagonists were used to construct Schild plots (Arunlakshana, O. And Schild, H. O., Br. J. Pharmacol: 14, 48-58, 1959 ). Regression of Log (dr-1) on Log [B], where dr is an equiactive response in the presence and absence of antagonist and [B] is the molar concentration of antagonist, allowed an estimate of pA2, i.e. the negative log of the concentration of antagonist which shifts the control histamine concentration-response curve 2X to the right.

T1 sequence (P31389 whole entry): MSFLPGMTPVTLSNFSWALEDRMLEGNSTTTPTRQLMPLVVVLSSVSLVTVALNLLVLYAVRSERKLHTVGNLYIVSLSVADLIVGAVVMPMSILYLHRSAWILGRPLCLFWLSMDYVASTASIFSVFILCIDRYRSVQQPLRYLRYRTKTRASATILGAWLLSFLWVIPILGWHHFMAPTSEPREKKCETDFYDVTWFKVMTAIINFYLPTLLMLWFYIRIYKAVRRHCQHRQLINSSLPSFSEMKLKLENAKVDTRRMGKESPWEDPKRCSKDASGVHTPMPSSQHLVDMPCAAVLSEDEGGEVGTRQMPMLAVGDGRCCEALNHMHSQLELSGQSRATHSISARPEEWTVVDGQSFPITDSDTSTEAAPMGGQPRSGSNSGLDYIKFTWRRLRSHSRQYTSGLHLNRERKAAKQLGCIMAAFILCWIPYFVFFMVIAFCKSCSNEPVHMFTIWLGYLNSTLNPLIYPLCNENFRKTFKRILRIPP

## CN(C)CCC(c1ccc(Cl)cc1)c1cccc(/C=C/C(=O)O)n1 (stereo not shown) [(E)-6-(1-(4-chlorophenyl)-3-dimethylaminopropyl)-2-pyridyl acrylic acid]
  Kb: 2000 nM
